Common to all, as to assay type: cell-based
For data set [1], the system named is IL-1β. The data set can be described thus: IL-1β inhibition assay (ELISA/HTRF of culture supernatants). Particulars: Homo sapiens, PMA-differentiated THP-1 cells, tested 10 μM to 0.003 μM. How it is done:
Human monocyte-like THP-1 cells were grown in RPMI media supplemented with 10% FBS (growth media) at 37° C., 5% CO2. Cell cultures were passaged every three days and maintained at a density of 5×10^5 to 1×10^6 cells per mL.
Compounds were prepared as 10 mM stock solutions in 100% DMSO. […] Each 200× dilution was then diluted 20-fold in growth media (step down dilution) to yield a 10× final assay concentration range. All compounds were tested over a final assay concentration range of 10 μM to 0.003 μM.
The level of IL-10 in supernatants from PMA-differentiated THP-1 cells was determined by ELISA using either the R&D Systems Human IL-1 beta/IL-1F2 Quantikine ELISA or the cisbio HTRF human IL 1 beta kit. Manufacturer's protocols were followed without deviation.
Background values were subtracted and resulting values were converted to percentage of vehicle-treated controls. Data was analyzed via GraphPad Prism 7.0 using a non-linear regression (variable slope (four-parameter)) equation.
Table 2 provides IL-10 ELISA EC50 values for example compounds. A indicates EC50>10 μM; B indicates EC50 between 1 and 10 μM (inclusive); C indicates EC50<1 μM.

The nature of data set [2]: MTT cell viability assay, THP-1 cells. Conditions: human, unstimulated THP-1 cells, read-out: THP-1 Cytotoxicity CC50. As for the experimental part:
(§1) In order to assess the cytotoxicity of the compounds, an MTT cell viability assay was performed in either unstimulated THP-1 or HepG2 cells as follows. 5×10^4 THP-1 or 5×10^3 HepG2 cells were seeded into each well of a 96-well plate in 90 μL of media. Compounds were added to cells as described for the IL-10 assay and returned to the incubator for an additional 72 hours. Next, 25 μL of MTT solution (5 mg/mL in sterile PBS) was added to each well. Plates were incubated for 3 hours at 37° C., 5% CO2. Next, for THP-1 cells, 100 μl of MTT solubilization solution (40% Dimethylformamide, 2% glacial acetic acid, 16% sodium dodecyl sulfate) was then added to each well and plates were incubated at room temperature in the dark overnight. For HepG2 cells, media was aspirated, 50 μL of DMSO was added and plates were mixed briefly with an orbital plate shaker. Absorbance at 570 nm was measured using a Perkin-Elmer EnVision plate reader.
Absorbance values were converted to percentage of vehicle-treated controls. Data was then analyzed using a non-linear regression (variable slope (four-parameter)) equation in GraphPad Prism 7.0.
Table 2 provides THP-1 cytotoxicity assay CC50 values for example compounds. A indicates CC50>10 μM; B indicates CC50 between 1 and 10 μM (inclusive); C indicates CC50<1 μM. NT, not tested.
A general note: Tetrazolium dyes change colour on reduction, which living cells bring about.

Data set [3] is described as follows: MTT cell viability assay, HepG2 cells. Particulars: human, read-out: HepG2 Cytotoxicity CC50. As for the experimental part:
as §1
Absorbance values were converted to percentage of vehicle-treated controls. Data was then analyzed using a non-linear regression (variable slope (four-parameter)) equation in GraphPad Prism 7.0. […]

Consider 20 molecules from US20240018166A1, “SULFONYL UREA NLRP3 INFLAMMASOME INHIBITORS” (Venatorx Pharmaceuticals, Inc., priority 2020, published 2024).

Bounds are passed on as bounds.

As for `CC1(C)[C@@H]2C[C@H]3OB(CCCc4ccc(S(=O)(=O)NC(=O)Nc5c6c(cc7c5CCC7)CCC6)cc4O)O[C@@]3(C)[C@H]1C2` [Example 48, N-((1,2,3,5,6,7-hexahydro-s-indacen-4-yl)carbamoyl)-3-hydroxy-4-(3-((3aS,4S,6S,7aR)-3a,5,5-trimethylhexahydro-4,6-methanobenzo[d][1,3,2]dioxaborol-2-yl)propyl)benzenesulfonamide], in data set [1], the EC50 (in general, the concentration needed to bring the measured effect to its halfway point) was in the range of 1 to 10 µM. The CC50 (usually the concentration giving 50% cytotoxicity) at 72 h in data set [2] is over 10 µM.

`CC1(C)[C@@H]2C[C@H]3OB(CCCc4cc(S(=O)(=O)NC(=O)Nc5c6c(cc7c5CCC7)CCC6)ccc4O)O[C@@]3(C)[C@H]1C2` [Example 49, N-((1,2,3,5,6,7-hexahydro-s-indacen-4-yl)carbamoyl)-4-hydroxy-3-(3-((3aS,4S,6S,7aR)-3a,5,5-trimethylhexahydro-4,6-methanobenzo[d][1,3,2]dioxaborol-2-yl)propyl)benzenesulfonamide]: in data set [1], the EC50 lay within 1 to 10 µM. Moreover, the CC50 at 72 h in data set [2] is over 10 µM.

In data set [1], `COc1ccc(S(=O)(=O)NC(=O)Nc2c3c(cc4c2CCC4)CCC3)cc1CCCB1O[C@@H]2C[C@@H]3C[C@@H](C3(C)C)[C@]2(C)O1` [Example 50, N-((1,2,3,5,6,7-hexahydro-s-indacen-4-yl)carbamoyl)-4-methoxy-3-(3-((3aS,4S,6S,7aR)-3a,5,5-trimethylhexahydro-4,6-methanobenzo[d][1,3,2]dioxaborol-2-yl)propyl)benzenesulfonamide] yielded an EC50 of 1 to 10 µM. Besides, the CC50 at 72 h in data set [2] is over 10 µM.

In data set [1], `COc1cc(-c2ccc3c(c2NC(=O)NS(=O)(=O)c2ccc4c(c2)COB4O)CCC3)ccn1` [Example 51, 1-hydroxy-N-((5-(2-methoxypyridin-4-yl)-2,3-dihydro-1H-inden-4-yl)carbamoyl)-1,3-dihydrobenzo[c][1,2]oxaborole-5-sulfonamide] gave an EC50 of 1 to 10 µM. Besides, the CC50 at 72 h in data set [2] is over 10 µM.

In data set [1], `CC(C)c1cc(C#N)c(F)c(C(C)C)c1NC(=O)NS(=O)(=O)c1ccc2c(c1)C(O)OB2O` (stereo not drawn) [Example 52, N-((4-cyano-3-fluoro-2,6-diisopropylphenyl)carbamoyl)-1,3-dihydroxy-1,3-dihydrobenzo[c][1,2]oxaborole-5-sulfonamide] came in with a concentration for a half-maximal effect (EC50) of over 10 µM. Besides, the CC50 at 72 h in data set [2] and in data set [3] was over 10 µM in each case.

With `COc1cc(-c2ccc3c(c2NC(=O)NS(=O)(=O)c2ccc4c(c2)C(O)OB4O)CCC3)ccn1` (stereo not drawn) [Example 53, 1,3-dihydroxy-N-((5-(2-methoxypyridin-4-yl)-2,3-dihydro-1H-inden-4-yl)carbamoyl)-1,3-dihydrobenzo[c][1,2]oxaborole-5-sulfonamide], the EC50 in data set [1] is 1 to 10 µM. For the same molecule, the half-maximal cytotoxic concentration (CC50) at 72 h in data set [2] and in data set [3] was over 10 µM throughout.

`CC(CB1OC(C)(C)C(C)(C)O1)c1coc(S(=O)(=O)NC(=O)Nc2c3c(cc4c2CCC4)CCC3)c1` (stereo not drawn) [Example 58, N-((1,2,3,5,6,7-hexahydro-s-indacen-4-yl)carbamoyl)-4-(1-(4,4,5,5-tetramethyl-1,3,2-dioxaborolan-2-yl)propan-2-yl)furan-2-sulfonamide]: in data set [1], the EC50 was under 1 µM. Besides, the CC50 at 72 h in data set [3] is over 10 µM.

As to `CC1(C)OB(CCCn2ccc(S(=O)(=O)NC(=O)Nc3c4c(cc5c3CCC5)CCC4)n2)OC1(C)C` [Example 59, N-((1,2,3,5,6,7-hexahydro-s-indacen-4-yl)carbamoyl)-1-(3-(4,4,5,5-tetramethyl-1,3,2-dioxaborolan-2-yl)propyl)-1H-pyrazole-3-sulfonamide], the EC50 in data set [1] was under 1 µM. The half-maximal cytotoxic concentration (CC50) at 72 h in data set [2] is over 10 µM.

The molecule `O=C(Nc1c2c(cc3c1CCC3)CCC2)NS(=O)(=O)c1ccn(CCCB(O)O)n1` [Example 63, (3-(3-(N-((1,2,3,5,6,7-hexahydro-s-indacen-4-yl)carbamoyl)sulfamoyl)-1H-pyrazol-1-yl)propyl)boronic acid] showed an EC50 in data set [1] of under 1 µM. Moreover, the CC50 at 72 h in data set [3] was over 10 µM.

`CC(CB1OC(C)(C)C(C)(C)O1)Cn1ccc(S(=O)(=O)NC(=O)Nc2c3c(cc4c2CCC4)CCC3)n1` (stereo not drawn) [Example 64, N-((1,2,3,5,6,7-hexahydro-s-indacen-4-yl)carbamoyl)-1-(2-methyl-3-(4,4,5,5-tetramethyl-1,3,2-dioxaborolan-2-yl)propyl)-1H-pyrazole-3-sulfonamide] returned an EC50 in data set [1] of under 1 µM. The CC50 at 72 h in data set [3] was over 10 µM.

Take `CC(CB(O)O)Cn1ccc(S(=O)(=O)NC(=O)Nc2c3c(cc4c2CCC4)CCC3)n1` (stereo not drawn) [Example 65, (3-(3-(N-((1,2,3,5,6,7-hexahydro-s-indacen-4-yl)carbamoyl)sulfamoyl)-1H-pyrazol-1-yl)-2-methylpropyl)boronic acid]: the EC50 in data set [1] is under 1 µM. Besides, the CC50 at 72 h in data set [3] is over 10 µM.

The molecule `CC(C)(Cn1ccc(S(=O)(=O)NC(=O)Nc2c3c(cc4c2CCC4)CCC3)n1)B1OC(C)(C)C(C)(C)O1` [Example 66, N-((1,2,3,5,6,7-hexahydro-s-indacen-4-yl)carbamoyl)-1-(2-methyl-2-(4,4,5,5-tetramethyl-1,3,2-dioxaborolan-2-yl)propyl)-1H-pyrazole-3-sulfonamide] had an EC50 in data set [1] of under 1 µM. Moreover, the CC50 at 72 h in data set [3] was over 10 µM.

Consider `CC1(C)CCc2c1nc1c(c2NC(=O)NS(=O)(=O)c2ccn(CCCB(O)O)n2)CCC1` [Example 67, (3-(3-(N-((3,3-dimethyl-1,2,3,5,6,7-hexahydrodicyclopenta[b,e]pyridin-8-yl)carbamoyl)sulfamoyl)-1H-pyrazol-1-yl)propyl)boronic acid], for which, in data set [1], the EC50 is under 1 µM. For the same molecule, the CC50 at 72 h in data set [3] is over 10 µM.

For `CC(C)c1cc(C#N)c(F)c(C(C)C)c1NC(=O)NS(=O)(=O)c1ccn(CCCB(O)O)n1` [Example 68, (3-(3-(N-((4-cyano-3-fluoro-2,6-diisopropylphenyl)carbamoyl)sulfamoyl)-1H-pyrazol-1-yl)propyl)boronic acid], in data set [1], the EC50 is under 1 µM. Moreover, the CC50 at 72 h in data set [3] was over 10 µM.

Regarding `COc1cc(-c2ccc3c(c2NC(=O)NS(=O)(=O)c2ccn(CCCB(O)O)n2)CCC3)ccn1` [Example 69, (3-(3-(N-((5-(2-methoxypyridin-4-yl)-2,3-dihydro-1H-inden-4-yl)carbamoyl)sulfamoyl)-1H-pyrazol-1-yl)propyl)boronic acid], the EC50 in data set [1] was under 1 µM. For the same molecule, in data set [3], the CC50 at 72 h is over 10 µM.

Turning to `CC1(C)OB(CCCC2(S(=O)(=O)NC(=O)Nc3c4c(cc5c3CCC5)CCC4)CC2)OC1(C)C` [Example 70, N-((1,2,3,5,6,7-hexahydro-s-indacen-4-yl)carbamoyl)-1-(3-(4,4,5,5-tetramethyl-1,3,2-dioxaborolan-2-yl)propyl)cyclopropane-1-sulfonamide], the EC50 in data set [1] is 1 to 10 µM. In addition, the CC50 at 72 h in data set [3] was over 10 µM.

In data set [1], `O=C(Nc1c2c(cc3c1CCC3)CCC2)NS(=O)(=O)C1(CCCB(O)O)CC1` [Example 71, (3-(1-(N-((1,2,3,5,6,7-hexahydro-s-indacen-4-yl)carbamoyl)sulfamoyl)cyclopropyl)propyl)boronic acid] yielded an EC50 of 1 to 10 µM. Also, the CC50 at 72 h in data set [3] was over 10 µM.

For `O=C(Nc1c2c(cc3c1CCC3)CCC2)NS(=O)(=O)C1CCN(CCCB(O)O)CC1` [Example 72, (3-(4-(N-((1,2,3,5,6,7-hexahydro-s-indacen-4-yl)carbamoyl)sulfamoyl)piperidin-1-yl)propyl)boronic acid], the EC50 in data set [1] was 1 to 10 µM. Further, the CC50 at 72 h in data set [3] was over 10 µM.

`CC1(C)OB(CCCN2CC(S(=O)(=O)NC(=O)Nc3c4c(cc5c3CCC5)CCC4)C2)OC1(C)C` [Example 73, N-((1,2,3,5,6,7-hexahydro-s-indacen-4-yl)carbamoyl)-1-(3-(4,4,5,5-tetramethyl-1,3,2-dioxaborolan-2-yl)propyl)azetidine-3-sulfonamide] returned an EC50 in data set [1] of under 1 µM. Also, the CC50 at 72 h in data set [3] is over 10 µM.

The molecule `CC(C)(O)c1coc(S(=O)(=O)NC(=O)Nc2c3c(cc4c2CCC4)CCC3)c1` [MCC-950, reference compound] showed an EC50 in data set [1] of under 1 µM. Besides, in data set [2], the CC50 at 72 h was over 10 µM.
